Experimental data taken from paper PMC11714206, “Massively Parallel Screening of Toll/Interleukin‐1 Receptor (TIR)‐Derived Peptides Reveals Multiple Toll‐Like Receptors (TLRs)‐Targeting Immunomodulatory Peptides” (Advanced Science, 2024).
Where no end group is shown, it is not given here.

Columns and labels:
[1] = design: method as in PMID 19661804; settings: possibly due to late administration; cited from earlier work
Description: (§1) Treatment of macrophage cells with synthetic TDIPs containing a cell‐penetrating moiety suppressed TLR4‐dependent inflammatory pathways in a dose‐dependent manner. Moreover, the selected TDIPs exerted broad‐spectrum TLR‐inhibitory effects by inhibiting interactions between TIR domain‐containing proteins, which enhanced the therapeutic efficacy in the murine sepsis model. Although we applied TDIP simultaneously with LPS, the timing of TLR inhibitor administration remains a critical consideration. ...

[2] = test system: polymicrobial sepsis model; design: method as in PMID 18305095; settings: administration 3 h before or 6 h after CLP surgery; cited from earlier work
Description: as §1

[3] = Serum stability analysis; format: in vitro ADME; settings: human serum (Sigma H4522), 1 mM peptide in water mixed 1:1 (v/v) with serum, 37 °C, SDS‐PAGE, Coomassie band intensity (ImageJ); for half-life at 0.5 mM: 0–72 h
Protocol: (§2) Figure 6 Molecular characterization of TDIPs. (a) Co‐immunoprecipitation of TIR domains and TDIPs. Lysates of HEK293T cells expressing FLAG‐tagged TIR domains were incubated with the indicated TDIPs. Peptides were blotted with an antibody against the penetratin sequence. Created with BioRender.com. (b) Fluorescence polarization binding assay of the Cy5‐labeled TDIP1 against TIR domains of Myd88, TRAM, and MAL. Error bars represent ± SD (n = 3). (c) Human serum stability (half‐life) of the TDIPs was measured. The percentage of the remaining peptide was quantified up to 72 h. (d) The secondary structure of the selected TDIPs was determined by circular dichroism. […] (e) TDIP1 and its truncates were compared for inhibition of TLR4 signaling by using HEK‐Blue^TM hTLR4 cells. Data are presented as mean ± SD. ^****p < 0.0001. All significance is versus the LPS‐treated CP group. n.s., not significant.
The first step of the serum stability analysis was performed as previously described^[ [60] ^] with a minor modification. Human serum (Sigma‐Aldrich, H4522) was thawed on ice and centrifuged at 18 000 × g for 10 min at 4 °C to remove lipids. The supernatant was incubated at 37 °C for 15 min to activate the proteins. Each peptide was prepared at a concentration of 1 mM in ultrapure water and mixed with human serum in a 1:1 (v/v) ratio. The mixed solutions were incubated at 37 °C for various periods (0, 1, 3, 6, 12, 24, 48, and 72 h). A mixture of ultrapure water and human serum was used as the blank. A total of 3 µg of the peptide was loaded on an SDS–polyacrylamide gel and stained with InstantBlue Coomassie Protein Stain (Abcam). The intensity of the remaining peptide bands was quantified using ImageJ and plotted.

[4] = molecular target: T1, TIR domain of TRAM (Homo sapiens, UniProt Q86XR7); assay: Fluorescence polarization (FP) assay, TRAM TIR; format: binding; settings: Cy5‐labeled TDIP1 50 nM, TIR domain diluted 1:1 from 40 µM, 30 min RT, ± SD, n = 3, read-out: apparent Kd against TRAM
T1 construct: purified TIR domains of MyD88, TRAM, and MAL
Protocol: as §2
(§3) Fluorescence polarization assays were carried out using a 384‐well black non‐binding microplate (Corning, CLS4514). TDIP1 peptide was synthesized by ANYGEN with N‐terminal Cy5 at >95% purity. The lyophilized peptide was reconstituted in ultrapure water (Invitrogen) to a concentration of 1 mM. The peptide was diluted with 10× PBS to make a final solution of 100 nM. […] After mixing the samples, the plate was incubated for 30 min at RT and read using an Infinite M1000 (Tecan, Mannedorf, Switzerland).

[5] = molecular target: T2, TIR domain of MAL (Homo sapiens, UniProt P58753); assay: Fluorescence polarization (FP) assay, MAL TIR; format: binding; settings: Cy5‐labeled TDIP1 50 nM, TIR domain diluted 1:1 from 40 µM, 30 min RT, ± SD, n = 3, read-out: apparent Kd against MAL
T2 construct: MAL (residues 79–221); 6xHis; made in house; host or cells: E. coli BL21 (DE3)
Protocol: as §2, §3

[6] = molecular target: T3, TIR domain of MyD88 (Homo sapiens, UniProt Q99836); assay: Fluorescence polarization (FP) assay, MyD88 TIR; format: binding; settings: Cy5‐labeled TDIP1 50 nM, TIR domain diluted 1:1 from 40 µM, 30 min RT, ± SD, n = 3, read-out: apparent Kd against MyD88
T3 construct: MyD88 (residues 148–296); 6xHis; made in house; host or cells: E. coli BL21 (DE3)
Protocol: as §2, §3

[7] = molecular target: T4, MyD88^TIR (Homo sapiens, UniProt Q99836); assay: T‐Surf phage library (P8 and P3) selection against MyD88^TIR, four rounds, NGS read counts; format: binding; settings: for P3_MyD88 Rank (after) / P3_MyD88 Rank (before): P3 library; for Population: P3_MyD88 pool: P3 T-Surf phage library, 4th round of selection against MyD88 TIR, share of NGS reads
T4 construct: MyD88 (residues 148–296); 6xHis; made in house; host or cells: E. coli BL21 (DE3)
In short: (§4)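 P8 and P3 T‐Surf libraries panned against plate-coated TIR domains (5 µg mL^−1), 1 h binding at RT, acid elution and TG1/helper-phage amplification per round. After four rounds, pools were PCR-barcoded and sequenced (NovaSeq, 100 bp paired-end, Phred ≥30); peptides ranked by read counts.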

[8] = molecular target: T5, MAL^TIR (Homo sapiens, UniProt P58753); assay: T‐Surf phage library (P8 and P3) selection against MAL^TIR, four rounds, NGS read counts; format: binding; settings: for P3_MAL Rank (after) / P3_MAL Rank (before): P3 library
T5 construct: MAL (residues 79–221); 6xHis; made in house; host or cells: E. coli BL21 (DE3)
In short: as §4

[9] = test system: human conjunctival epithelial cells and rabbit cornea; settings: cited from earlier work
[10] = selection against MyD88 TIR, rank by count after grouping
[11] = selection against MyD88 TIR, rank by count before grouping
[12] = P3_MAL: rank by count after grouping
[13] = P3_MAL: rank by count before grouping

T5 sequence (P58753 79-221): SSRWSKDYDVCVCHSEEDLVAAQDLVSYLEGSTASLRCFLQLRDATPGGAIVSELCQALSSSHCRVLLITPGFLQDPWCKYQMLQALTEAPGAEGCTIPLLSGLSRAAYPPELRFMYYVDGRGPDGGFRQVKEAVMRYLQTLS
T4 sequence (Q99836 148-296): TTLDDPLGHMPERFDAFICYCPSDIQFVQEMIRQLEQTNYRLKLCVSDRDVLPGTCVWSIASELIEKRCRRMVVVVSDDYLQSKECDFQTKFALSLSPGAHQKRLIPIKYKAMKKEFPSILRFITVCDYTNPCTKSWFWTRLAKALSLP
T2 sequence (P58753 79-221): as the sequence (P58753 79-221) above
T1 sequence (Q86XR7 73-229 limits assumed): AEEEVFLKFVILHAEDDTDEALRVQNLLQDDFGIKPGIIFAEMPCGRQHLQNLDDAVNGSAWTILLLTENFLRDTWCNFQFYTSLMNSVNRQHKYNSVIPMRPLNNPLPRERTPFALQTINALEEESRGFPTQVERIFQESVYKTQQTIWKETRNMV
T3 sequence (Q99836 148-296): as the sequence (Q99836 148-296) above

## CCCCCC/C=C\CCCCCCCCCC(=O)N[C@H]1[C@H](OC[C@H]2O[C@H](OP(=O)(O)O)[C@H](NC(=O)CC(=O)CCCCCCCCCCC)[C@@H](OCCCCCCCCCC)[C@@H]2O)O[C@H](COC)[C@@H](OP(=O)(O)O)[C@@H]1OCC[C@@H](CCCCCCC)OC [Eritoran tetrasodium]
[1]
  outcome in clinical trials: failed in clinical trials

## CCN(CC)CCCC(C)Nc1ccnc2cc(Cl)ccc12 (centres unmarked) [chloroquine]
[2]
  survival in polymicrobial sepsis model: markedly improved survival

## RQIKIWFQNRRMKWKKLFFWESLKQLLRSDGR [TDIP6]
[3]
  remaining peptide after 48 h of incubation in human serum: up to 50%

## RQIKIWFQNRRMKWKKLVAHEISKKMKIFATI [TDIP20]
[3]
  half-life at 0.5 mM: < 60 min

## RQIKIWFQNRRMKWKKTFLGHLYNALVQAGIH [TDIP5]
[3]
  half-life at 0.5 mM: ~360 min

## RQIKIWFQNRRMKWKKWFYERLVSLILRDTKV [TDIP1]
[4]
  Kd: 1460 ± 110 nM
[5]
  Kd: 4.49 ± 0.72 µM
[6]
  Kd: 2800 ± 460 nM
[3]
  remaining peptide after 48 h of incubation in human serum: up to 50%

## YAFTGHLHRYLVQREPAGN
[7]; [10]
  P3_MyD88 Rank (after): 196
[7]; [11]
  P3_MyD88 Rank (before): 1511
[8]; [12]
  Rank (after): 413
[8]; [13]
  Rank (before): 1402

## YAFTGHLQRYLVHRGV
[7]; P3_MyD88: rank by count after grouping
  Rank (after): 120
[7]; P3_MyD88: rank by count before grouping
  Rank (before): 1532
[8]; selection against MAL TIR, rank by count after grouping
  P3_MAL Rank (after): 251
[8]; selection against MAL TIR, rank by count before grouping
  P3_MAL Rank (before): 1443

## YASSSWALDELLRILY
[7]; selection against MyD88, rank after grouping
  P3_MyD88 Rank (after): 502
[7]; selection against MyD88, rank before grouping
  P3_MyD88 Rank (before): 1556
[8]; P8 library, selection against MAL TIR, rank by count after grouping
  P8_MAL Rank (after): 227
[8]; P8 library, selection against MAL TIR, rank by count before grouping
  P8_MAL Rank (before): 799

## YLKWGDPYFWSKLRYAM
[7]
  Population: 0.00466%
[8]; [12]
  Rank (after): 159
[8]; [13]
  Rank (before): 519

## YLKWKEALHQFHSWV
[7]; 4R selection against MyD88, rank after grouping
  P3_MyD88 Rank (after): 601
[7]; 4R selection against MyD88, rank before grouping
  P3_MyD88 Rank (before): 1609
[8]; 4R selection against MAL, rank after grouping
  P3_MAL Rank (after): 662
[8]; 4R selection against MAL, rank before grouping
  P3_MAL Rank (before): 1520

## YTALTNSGFHTFRDND
[7]
  Population: 0.00291%
[8]; P8_MAL: rank by count after grouping
  Rank (after): 105
[8]; P8_MAL: rank by count before grouping
  Rank (before): 584

## YTALTNSGFHTFREM
[7]; [10]
  P3_MyD88 Rank (after): 213
[7]; [11]
  P3_MyD88 Rank (before): 1675
[8]; selection against MAL, rank after grouping
  P3_MAL Rank (after): 500
[8]; selection against MAL, rank before grouping
  P3_MAL Rank (before): 1548

## YTLLAICMMRCIVIV
[7]; selection against MyD88, rank by count after grouping
  P3_MyD88 Rank (after): 682
[7]; selection against MyD88, rank by count before grouping
  P3_MyD88 Rank (before): 1622
[8]; selection against MAL, rank by count after grouping
  P3_MAL Rank (after): 751
[8]; selection against MAL, rank by count before grouping
  P3_MAL Rank (before): 1535

## penetratin
[9]
  cellular and tissue toxicity compared with other CPPs such as TAT and polyarginine: lower cellular and tissue toxicity
  cellular uptake: excellent cellular uptake
